Columns and labels:
[1] = Ratio of drug uptake in pons to cerebellum in anesthetized cynomolgus monkey after 18.5 mins postinjection; assay type: ADME, organism-based, Macaca fascicularis; settings: in vivo
[2] = Ratio of drug uptake in medulla to cerebellum in anesthetized cynomolgus monkey after 1.5 mins postinjection; assay type: ADME, organism-based, Macaca fascicularis; settings: in vivo, 0.025 h
[3] = Ratio of drug uptake in medulla to cerebellum in anesthetized cynomolgus monkey after 12.5 mins postinjection; assay type: ADME, organism-based, Macaca fascicularis; settings: in vivo
[4] = Ratio of drug uptake in medulla to cerebellum in anesthetized cynomolgus monkey after 18.5 mins postinjection; assay type: ADME, organism-based, Macaca fascicularis; settings: in vivo
[5] = Drug uptake in anesthetized cynomolgus monkey brain occipital lobe after 35 mins postinjection; assay type: ADME, organism-based, Macaca fascicularis; settings: in vivo
[6] = Drug uptake in anesthetized cynomolgus monkey brain occipital lobe after 95 mins postinjection; assay type: ADME, organism-based, Macaca fascicularis; settings: in vivo
[7] = Drug uptake in anesthetized cynomolgus monkey brain occipital lobe after 155 mins postinjection; assay type: ADME, organism-based, Macaca fascicularis; settings: in vivo
[8] = Drug uptake in anesthetized cynomolgus monkey brain occipital lobe after 215 mins postinjection; assay type: ADME, organism-based, Macaca fascicularis; settings: in vivo
[9] = Drug uptake in anesthetized cynomolgus monkey brain frontal lobe after 3.5 mins postinjection; assay type: ADME, organism-based, Macaca fascicularis; settings: in vivo
[10] = Drug uptake in anesthetized cynomolgus monkey brain frontal lobe after 22.5 mins postinjection; assay type: ADME, organism-based, Macaca fascicularis; settings: in vivo, 0.375 h
[11] = Drug uptake in anesthetized cynomolgus monkey brain frontal lobe after 35 mins postinjection; assay type: ADME, organism-based, Macaca fascicularis; settings: in vivo
[12] = Drug uptake in anesthetized cynomolgus monkey brain frontal lobe after 55 mins postinjection; assay type: ADME, organism-based, Macaca fascicularis; settings: in vivo
[13] = Drug uptake in anesthetized cynomolgus monkey brain frontal lobe after 215 mins postinjection; assay type: ADME, organism-based, Macaca fascicularis; settings: in vivo
[14] = Ratio of drug uptake in pons to cerebellum in anesthetized cynomolgus monkey after 0.5 mins postinjection; assay type: ADME, organism-based, Macaca fascicularis; settings: in vivo
Putamen [15] = assay: Drug uptake in anesthetized cynomolgus monkey brain putamen after 115 mins postinjection; assay type: ADME, organism-based, Macaca fascicularis; design: unit not given here; settings: in vivo
Thalamus [16] = assay: Drug uptake in anesthetized cynomolgus monkey brain thalamus after 1.5 mins postinjection; assay type: ADME, organism-based, Macaca fascicularis; settings: in vivo, 0.025 h
[17] = Ratio of drug uptake in occipital lobe to cerebellum in anesthetized cynomolgus monkey after 205 mins postinjection; assay type: ADME, organism-based, Macaca fascicularis; settings: in vivo
Pons [18] = assay: Drug uptake in anesthetized cynomolgus monkey brain pons after 2.5 mins postinjection; assay type: ADME, organism-based, Macaca fascicularis; settings: in vivo
Pons [19] = assay: Drug uptake in anesthetized cynomolgus monkey brain pons after 15.5 mins postinjection; assay type: ADME, organism-based, Macaca fascicularis; settings: in vivo
Pons [20] = assay: Drug uptake in anesthetized cynomolgus monkey brain pons after 27.5 mins postinjection; assay type: ADME, organism-based, Macaca fascicularis; settings: in vivo
Pons [21] = assay: Drug uptake in anesthetized cynomolgus monkey brain pons after 65 mins postinjection; assay type: ADME, organism-based, Macaca fascicularis; settings: in vivo
Pons [22] = assay: Drug uptake in anesthetized cynomolgus monkey brain pons after 75 mins postinjection; assay type: ADME, organism-based, Macaca fascicularis; settings: in vivo, 1.25 h
Midbrain [23] = assay: Drug uptake in anesthetized cynomolgus monkey brain midbrain after 185 mins postinjection; assay type: ADME, organism-based, Macaca fascicularis; settings: in vivo
Midbrain [24] = assay: Drug uptake in anesthetized cynomolgus monkey brain midbrain after 195 mins postinjection; assay type: ADME, organism-based, Macaca fascicularis; settings: in vivo, 3.25 h
Medulla [25] = assay: Drug uptake in anesthetized cynomolgus monkey brain medulla after 195 mins postinjection; assay type: ADME, organism-based, Macaca fascicularis; settings: in vivo, 3.25 h
[26] = Ratio of drug uptake in frontal lobe to cerebellum in anesthetized cynomolgus monkey after 235 mins postinjection; assay type: ADME, organism-based, Macaca fascicularis; settings: in vivo
[27] = Ratio of drug uptake in caudate to cerebellum in anesthetized cynomolgus monkey after 9.5 mins postinjection; assay type: ADME, organism-based, Macaca fascicularis; settings: in vivo
[28] = Ratio of drug uptake in caudate to cerebellum in anesthetized cynomolgus monkey after 12.5 mins postinjection; assay type: ADME, organism-based, Macaca fascicularis; settings: in vivo
Pons [29] = assay: Drug uptake in anesthetized cynomolgus monkey brain pons after 145 mins postinjection; assay type: ADME, organism-based, Macaca fascicularis; settings: in vivo
Pons [30] = assay: Drug uptake in anesthetized cynomolgus monkey brain pons after 165 mins postinjection; assay type: ADME, organism-based, Macaca fascicularis; settings: in vivo, 2.75 h
Pons [31] = assay: Drug uptake in anesthetized cynomolgus monkey brain pons after 215 mins postinjection; assay type: ADME, organism-based, Macaca fascicularis; settings: in vivo
[32] = Ratio of drug uptake in caudate to cerebellum in anesthetized cynomolgus monkey after 225 mins postinjection; assay type: ADME, organism-based, Macaca fascicularis; settings: in vivo, 3.75 h
[33] = Ratio of drug uptake in putamen to cerebellum in anesthetized cynomolgus monkey after 35 mins postinjection; assay type: ADME, organism-based, Macaca fascicularis; settings: in vivo
Medulla [34] = assay: Drug uptake in anesthetized cynomolgus monkey brain medulla after 155 mins postinjection; assay type: ADME, organism-based, Macaca fascicularis; settings: in vivo
[35] = Ratio of drug uptake in putamen to cerebellum in anesthetized cynomolgus monkey after 75 mins postinjection; assay type: ADME, organism-based, Macaca fascicularis; settings: in vivo, 1.25 h
[36] = Ratio of drug uptake in putamen to cerebellum in anesthetized cynomolgus monkey after 155 mins postinjection; assay type: ADME, organism-based, Macaca fascicularis; settings: in vivo
Medulla [37] = assay: Drug uptake in anesthetized cynomolgus monkey brain medulla after 225 mins postinjection; assay type: ADME, organism-based, Macaca fascicularis; settings: in vivo, 3.75 h
[38] = Drug uptake in anesthetized cynomolgus monkey brain cerebellum after 0.5 mins postinjection; assay type: ADME, organism-based, Macaca fascicularis; settings: in vivo
[39] = Drug uptake in anesthetized cynomolgus monkey brain cerebellum after 3.5 mins postinjection; assay type: ADME, organism-based, Macaca fascicularis; settings: in vivo
[40] = Drug uptake in anesthetized cynomolgus monkey brain cerebellum after 9.5 mins postinjection; assay type: ADME, organism-based, Macaca fascicularis; settings: in vivo
[41] = Drug uptake in anesthetized cynomolgus monkey brain cerebellum after 85 mins postinjection; assay type: ADME, organism-based, Macaca fascicularis; settings: in vivo
[42] = Drug uptake in anesthetized cynomolgus monkey brain occipital lobe after 0.5 mins postinjection; assay type: ADME, organism-based, Macaca fascicularis; settings: in vivo
[43] = Ratio of drug uptake in putamen to cerebellum in anesthetized cynomolgus monkey after 215 mins postinjection; assay type: ADME, organism-based, Macaca fascicularis; settings: in vivo
[44] = Ratio of drug uptake in thalamus to cerebellum in anesthetized cynomolgus monkey after 135 mins postinjection; assay type: ADME, organism-based, Macaca fascicularis; settings: in vivo, 2.25 h
Caudate [45] = assay: Drug uptake in anesthetized cynomolgus monkey brain caudate after 0.5 mins postinjection; assay type: ADME, organism-based, Macaca fascicularis, Caudate nucleus; settings: in vivo
Caudate [46] = assay: Drug uptake in anesthetized cynomolgus monkey brain caudate after 3.5 mins postinjection; assay type: ADME, organism-based, Macaca fascicularis, Caudate nucleus; settings: in vivo
Caudate [47] = assay: Drug uptake in anesthetized cynomolgus monkey brain caudate after 85 mins postinjection; assay type: ADME, organism-based, Macaca fascicularis, Caudate nucleus; settings: in vivo
Caudate [48] = assay: Drug uptake in anesthetized cynomolgus monkey brain caudate after 105 mins postinjection; assay type: ADME, organism-based, Macaca fascicularis, Caudate nucleus; settings: in vivo, 1.75 h
Caudate [49] = assay: Drug uptake in anesthetized cynomolgus monkey brain caudate after 175 mins postinjection; assay type: ADME, organism-based, Macaca fascicularis, Caudate nucleus; settings: in vivo
Thalamus [50] = assay: Drug uptake in anesthetized cynomolgus monkey brain thalamus after 4.5 mins postinjection; assay type: ADME, organism-based, Macaca fascicularis; design: unit not given here; settings: in vivo, 0.075 h
Thalamus [51] = assay: Drug uptake in anesthetized cynomolgus monkey brain thalamus after 22.5 mins postinjection; assay type: ADME, organism-based, Macaca fascicularis; design: unit not given here; settings: in vivo, 0.375 h
Putamen [52] = assay: Drug uptake in anesthetized cynomolgus monkey brain putamen after 6.5 mins postinjection; assay type: ADME, organism-based, Macaca fascicularis; design: unit not given here; settings: in vivo
Putamen [53] = assay: Drug uptake in anesthetized cynomolgus monkey brain putamen after 9.5 mins postinjection; assay type: ADME, organism-based, Macaca fascicularis; design: unit not given here; settings: in vivo
Putamen [54] = assay: Drug uptake in anesthetized cynomolgus monkey brain putamen after 12.5 mins postinjection; assay type: ADME, organism-based, Macaca fascicularis; design: unit not given here; settings: in vivo
Putamen [55] = assay: Drug uptake in anesthetized cynomolgus monkey brain putamen after 35 mins postinjection; assay type: ADME, organism-based, Macaca fascicularis; design: unit not given here; settings: in vivo
Putamen [56] = assay: Drug uptake in anesthetized cynomolgus monkey brain putamen after 55 mins postinjection; assay type: ADME, organism-based, Macaca fascicularis; design: unit not given here; settings: in vivo
Thalamus [57] = assay: Drug uptake in anesthetized cynomolgus monkey brain thalamus after 55 mins postinjection; assay type: ADME, organism-based, Macaca fascicularis; design: unit not given here; settings: in vivo
Thalamus [58] = assay: Drug uptake in anesthetized cynomolgus monkey brain thalamus after 75 mins postinjection; assay type: ADME, organism-based, Macaca fascicularis; design: unit not given here; settings: in vivo, 1.25 h
Thalamus [59] = assay: Drug uptake in anesthetized cynomolgus monkey brain thalamus after 175 mins postinjection; assay type: ADME, organism-based, Macaca fascicularis; design: unit not given here; settings: in vivo
Midbrain [60] = assay: Drug uptake in anesthetized cynomolgus monkey brain midbrain after 1.5 mins postinjection; assay type: ADME, organism-based, Macaca fascicularis; design: unit not given here; settings: in vivo, 0.025 h
Midbrain [61] = assay: Drug uptake in anesthetized cynomolgus monkey brain midbrain after 9.5 mins postinjection; assay type: ADME, organism-based, Macaca fascicularis; design: unit not given here; settings: in vivo
Midbrain [62] = assay: Drug uptake in anesthetized cynomolgus monkey brain midbrain after 18.5 mins postinjection; assay type: ADME, organism-based, Macaca fascicularis; design: unit not given here; settings: in vivo
Midbrain [63] = assay: Drug uptake in anesthetized cynomolgus monkey brain midbrain after 65 mins postinjection; assay type: ADME, organism-based, Macaca fascicularis; design: unit not given here; settings: in vivo
[64] = Ratio of drug uptake in midbrain to cerebellum in anesthetized cynomolgus monkey after 2.5 mins postinjection; assay type: ADME, organism-based, Macaca fascicularis; settings: in vivo
[65] = Ratio of drug uptake in midbrain to cerebellum in anesthetized cynomolgus monkey after 85 mins postinjection; assay type: ADME, organism-based, Macaca fascicularis; settings: in vivo
[66] = Ratio of drug uptake in midbrain to cerebellum in anesthetized cynomolgus monkey after 95 mins postinjection; assay type: ADME, organism-based, Macaca fascicularis; settings: in vivo
[67] = Ratio of drug uptake in midbrain to cerebellum in anesthetized cynomolgus monkey after 145 mins postinjection; assay type: ADME, organism-based, Macaca fascicularis; settings: in vivo

SMILES: O=C(OCC[18F])C1C2CCC(CC1c1cccc(/C=C\Br)c1)N2 (configuration not stated)
- Ratio [1]: 1.1
- Ratio [2]: 1.3
- Ratio [3]: 1.2
- Ratio [4]: 1.2
- Drug uptake [5]: 3.43
- Drug uptake [6]: 3.16
- Drug uptake [7]: 2.67
- Drug uptake [8]: 2.01
- Drug uptake [9]: 0.62
- Drug uptake [10]: 2.54
- Drug uptake [11]: 2.78
- Drug uptake [12]: 2.8
- Drug uptake [13]: 1.97
- Ratio [14]: 3.8
- Drug uptake (Putamen [15]): 4.68
- Drug uptake (Thalamus [16]): 0.08
- Ratio [17]: 1.3
- Drug uptake (Pons [18]): 0.42
- Drug uptake (Pons [19]): 3.73
- Drug uptake (Pons [20]): 4.1
- Drug uptake (Pons [21]): 4.56
- Drug uptake (Pons [22]): 4.51
- Drug uptake (Midbrain [23]): 4.14
- Drug uptake (Midbrain [24]): 3.91
- Drug uptake (Medulla [25]): 3.34
- Ratio [26]: 1.2
- Ratio [27]: 0.7
- Ratio [28]: 0.8
- Drug uptake (Pons [29]): 4.16
- Drug uptake (Pons [30]): 3.9
- Drug uptake (Pons [31]): 3.22
- Ratio [32]: 1.8
- Ratio [33]: 1.3
- Drug uptake (Medulla [34]): 3.83
- Ratio [35]: 1.5
- Ratio [36]: 1.8
- Drug uptake (Medulla [37]): 2.67
- Drug uptake [38]: 0
- Drug uptake [39]: 1.14
- Drug uptake [40]: 3.17
- Drug uptake [41]: 3.17
- Drug uptake [42]: 0.01
- Ratio [43]: 1.8
- Ratio [44]: 1.7
- Drug uptake (Caudate [45]): 0
- Drug uptake (Caudate [46]): 0.63
- Drug uptake (Caudate [47]): 4.06
- Drug uptake (Caudate [48]): 4.01
- Drug uptake (Caudate [49]): 3.29
- Drug uptake (Thalamus [50]): 1.44
- Drug uptake (Thalamus [51]): 3.43
- Drug uptake (Putamen [52]): 3.01
- Drug uptake (Putamen [53]): 3.59
- Drug uptake (Putamen [54]): 3.69
- Drug uptake (Putamen [55]): 4.8
- Drug uptake (Putamen [56]): 5.05
- Drug uptake (Thalamus [57]): 4.38
- Drug uptake (Thalamus [58]): 4.29
- Drug uptake (Thalamus [59]): 3.36
- Drug uptake (Midbrain [60]): 0.08
- Drug uptake (Midbrain [61]): 3.41
- Drug uptake (Midbrain [62]): 4.16
- Drug uptake (Midbrain [63]): 5
- Ratio [64]: 1.3
- Ratio [65]: 1.5
- Ratio [66]: 1.6
- Ratio [67]: 2

— ChEMBL document CHEMBL1151757, “Synthesis, radiosynthesis, and biological evaluation of fluorine-18-labeled 2beta-carbo(fluoroalkoxy)-3beta-(3'-((Z)-2-haloethenyl)phenyl)nortropanes: candidate radioligands for in vivo imaging of the serotonin transporter with positron emission tomography” (J Med Chem, 2008)
